Results published in US20060110732A1, “Method for the identification of ligands” (priority 2002, published 2006).
Like-named read-outs stand apart in the source and are kept apart here. One block for each molecule: values may come before it.

Experiments:
ER-α [1] = target: T1, ER-α (Homo sapiens, UniProt P03372); assay: biochemical
T1 sequence (P03372 1-595): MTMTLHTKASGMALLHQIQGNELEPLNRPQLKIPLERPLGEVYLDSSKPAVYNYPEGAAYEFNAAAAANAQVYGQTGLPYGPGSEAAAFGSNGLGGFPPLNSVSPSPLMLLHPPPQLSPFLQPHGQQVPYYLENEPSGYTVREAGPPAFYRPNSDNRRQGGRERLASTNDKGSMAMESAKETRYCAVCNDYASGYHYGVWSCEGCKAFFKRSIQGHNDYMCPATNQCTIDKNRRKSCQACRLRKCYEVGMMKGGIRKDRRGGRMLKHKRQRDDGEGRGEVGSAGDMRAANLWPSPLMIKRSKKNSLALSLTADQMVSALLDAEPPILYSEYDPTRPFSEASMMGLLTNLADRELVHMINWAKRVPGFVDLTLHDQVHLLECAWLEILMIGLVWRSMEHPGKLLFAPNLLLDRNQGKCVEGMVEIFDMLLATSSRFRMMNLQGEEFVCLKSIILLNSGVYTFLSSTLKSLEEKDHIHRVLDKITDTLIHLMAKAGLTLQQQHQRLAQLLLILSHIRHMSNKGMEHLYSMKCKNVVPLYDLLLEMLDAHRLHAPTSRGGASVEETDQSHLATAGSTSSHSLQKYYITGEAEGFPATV
Description: (§1) A 2 μL ligand solution at 2 times the final concentration was dispensed with a micropipette into a 384 well black wall Greiner plate. Then, 2 μL of the protein dye solution was dispensed on top of the ligand solution in the 384 well plate. The plates were spun to ensure nixing of the protein-dye and ligand solutions followed by layering of 1 μL of silicone oil to prevent evaporation during heating of the samples. […] The values for the co-regulators represent a change in Tm stabilization from the receptor-ligand ΔTm values.

ER-β [2] = target: T2, ER-β (Homo sapiens, UniProt Q92731); settings: ligand 40 μM; for Change in Tm stabilization from receptor-ligand ΔTm, SRC1: SRC-1 20 μM; for Observed ΔTm stabilization, Ligand: no co-activator
ER-β [3] = target: T2, ER-β; assay: Microplate thermal shift (Thermofluor) of ER-β with ligands and co-regulators, Example 1; type: binding; parameters: Observed ΔTm stabilization, ligand alone / Change in Tm stabilization from receptor-ligand ΔTm, SRC-3 / Change in Tm stabilization from receptor-ligand ΔTm, NcoR1-NR1: unit not given here; settings: ER-β 8 μM, ligand 20 μM
Description: as §1

ER-α [4] = target: T1, ER-α; assay: biochemical; remark: listed apart in the source
Description: Table 4, shown below, is a summary of the data obtained for ER-α and ER-β in the presence of the coactivator proteins SRC-1 SRC-2 and SRC-3 and in the presence of seven ligands. The concentration of ER-α in all experiments was 8 μM, the ligand concentration was 40 μM, SRC-1 and SRC-3 were at 20 μM.
(§2) A 2 μL ligand solution at 2 times the final concentration was dispensed with a micropipette into a 384 well black wall Greiner plate. Then 2 μL of the protein dye solution was dispensed on top of the ligand solution in the 384 well plate. The plates were spun to ensure mixing of the protein-dye and ligand solutions followed by layering of 1 μL of silicone oil to prevent evaporation during heating of the samples. Data were collected on a Thermofluor apparatus and data were analyzed using software that employs a non-linear Marquardt algorithm. Reported results are the average of four experiments. The values for the co-regulators represent a change in Tm stabilization from the receptor-ligand ΔTm values.
FIG. 3 illustrates binding constants, Ka, for co-activator proteins SRC-1, SRC-2 and SRC-3 in the presence of ER-α ligands. FIG. 4 illustrates binding constants, Ka, for co-activator proteins SRC-1, […] in the presence of ER-β ligands Binding constants were calculated from the observed induced ligand and co-regulator stabilization of the nuclear receptor.

PPAR-γ [5] = target: T3, PPAR-γ (Homo sapiens, UniProt P37231); assay: Microplate thermal shift of PPAR-γ with ligands, co-activator peptide and co-repressor peptide NCoR-1, Example 5; type: binding; settings: for Observed stabilization of PPAR-γ, SRC1-NR2 / Observed stabilization of PPAR-γ, NCoR-1 / Observed stabilization of PPAR-γ, Ligand: PPAR-γ 8 μM, ligand 40 μM; for Observed stabilization of PPAR-γ, SRC1-NR2: co-activator peptide 200 μM; for Observed stabilization of PPAR-γ, NCoR-1: co-repressor peptide NCoR-1 200 μM; for Observed stabilization of PPAR-γ, Ligand: no peptide; for Thermofluor Prediction (PPAR-γ): based on relative affinities for co-activator and co-repressor peptides, partial = partial agonist
T3 sequence (P37231 1-505): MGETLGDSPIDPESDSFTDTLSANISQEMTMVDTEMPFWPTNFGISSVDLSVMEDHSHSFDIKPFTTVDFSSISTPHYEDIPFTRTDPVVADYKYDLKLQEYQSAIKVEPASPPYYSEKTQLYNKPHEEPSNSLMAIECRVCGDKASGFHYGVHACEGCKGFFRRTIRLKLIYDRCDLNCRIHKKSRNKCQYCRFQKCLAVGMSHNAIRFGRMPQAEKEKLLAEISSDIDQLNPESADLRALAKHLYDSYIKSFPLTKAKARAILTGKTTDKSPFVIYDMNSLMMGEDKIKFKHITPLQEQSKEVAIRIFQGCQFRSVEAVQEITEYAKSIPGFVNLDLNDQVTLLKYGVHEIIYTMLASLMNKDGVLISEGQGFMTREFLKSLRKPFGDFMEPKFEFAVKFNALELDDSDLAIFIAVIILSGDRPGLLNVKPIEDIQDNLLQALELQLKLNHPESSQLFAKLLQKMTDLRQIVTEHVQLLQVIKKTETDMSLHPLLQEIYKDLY
Description: as §2, with “The experiments were performed in 25 mM HEPES pH 7.9, 200 mM NaCl, […] and in the presence of 50 μM dapoxyl-2-amino-ethyl sulfonamide. A” for “A”, “experiments.” for “experiments. The values for the co-regulators represent a change in Tm stabilization from the receptor-ligand ΔTm values.”

PPAR-γ [6] = target: T3, PPAR-γ; settings: reported in literature; partial = partial agonist; cited from earlier work
ER-β [7] = target: T2, ER-β; assay: biochemical
ER-α [8] = target: T1, ER-α; assay: Microplate thermal shift of ER-α against a panel of steroid ligands, Example 2; type: binding; settings: ER-α 8 μM, ligand 20 μM, 25 mM phosphate pH 8.0; average of four experiments
Description: The concentration of ER-α in all of the experiments was 8 μM and the ligand concentration was 20 μM.
A 2 μL ligand solution at 2 times the final concentration was dispensed with a micropipette into a 384 well black wall Greiner plate. Then, 2 μL of the protein dye solution was dispensed on top of the ligand solution in the 384 well plate. The plates were spun to ensure mixing of the protein-dye and ligand solutions followed by layering of 1 μL of silicone oil to prevent evaporation during heating of the samples.

[9] = read-out: Change in Tm stabilization from receptor-ligand ΔTm, SRC1
[10] = read-out: Change in Tm stabilization from receptor-ligand ΔTm, SRC3

T2 sequence (Q92731 whole entry, species assumed): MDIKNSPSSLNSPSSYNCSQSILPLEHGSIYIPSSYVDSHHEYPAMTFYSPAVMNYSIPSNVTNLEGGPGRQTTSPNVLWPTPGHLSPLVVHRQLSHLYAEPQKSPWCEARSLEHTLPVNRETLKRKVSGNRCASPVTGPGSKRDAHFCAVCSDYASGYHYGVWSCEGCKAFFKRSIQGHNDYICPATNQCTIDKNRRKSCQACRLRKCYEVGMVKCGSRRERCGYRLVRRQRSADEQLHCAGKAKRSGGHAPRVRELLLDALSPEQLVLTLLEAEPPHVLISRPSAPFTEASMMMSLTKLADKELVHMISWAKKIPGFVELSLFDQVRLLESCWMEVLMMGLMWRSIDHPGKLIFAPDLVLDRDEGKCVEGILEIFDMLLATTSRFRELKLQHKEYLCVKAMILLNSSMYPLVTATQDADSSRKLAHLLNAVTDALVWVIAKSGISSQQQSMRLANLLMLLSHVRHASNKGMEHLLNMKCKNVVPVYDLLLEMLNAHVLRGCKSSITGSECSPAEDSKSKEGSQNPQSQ

Molecule: 4-hydroxytamoxifen [4-OH-tamoxifen]
Classification as agonist or antagonist for ER-α (ER-α [1]): antagonist

Molecule: 17-α-ethylene-estradiol [17-α-ethylene-E2]
Change in Tm stabilization from receptor-ligand ΔTm, SRC1 (ER-β [2]): 1.1

Molecule: COc1cc2c(cc1O)CC[C@@H]1[C@@H]2CC[C@]2(C)[C@@H](O)CC[C@@H]12 [2-methoxy-E2, 2-methoxy-estradiol]
Change in Tm stabilization from receptor-ligand ΔTm, NcoR1-NR1 (ER-α [1]; ER-α 8 μM, ligand 20 μM, co-repressor peptide NCoR-1 100 μM): −0.7 | Observed ΔTm stabilization, ligand alone (ER-α [1]; ER-α 8 μM, ligand 20 μM, no co-regulator, average of four experiments): 3.5 | Classification as agonist or antagonist for ER-α (ER-α [1]; if screened against a panel of co-regulators as in Example 1): agonists | Change in Tm stabilization from receptor-ligand ΔTm, SRC1-NR2 (ER-β [3]; co-activator peptide SRC1-NR2 100 μM): 4.4 | Change in Tm stabilization from receptor-ligand ΔTm, SRC3-NR2 (ER-β [3]; co-activator peptide SRC3-NR2 100 μM): 4.4 | Change in Tm stabilization from receptor-ligand ΔTm, SRC-3 (ER-β [3]; co-activator protein SRC-3 11 μM): 2.5 | Change in Tm stabilization from receptor-ligand ΔTm, NcoR1-NR1 (ER-β [3]; co-repressor peptide NCoR-1 100 μM): −0.7 | Observed ΔTm stabilization, ligand alone (ER-β [3]; no co-regulator, average of four experiments): 2.9 | Change in Tm stabilization from receptor-ligand ΔTm, SRC1 (ER-α [4]; ER-α 8 μM, ligand 40 μM, SRC-1 20 μM): 2.1 | Observed ΔTm stabilization, Ligand (ER-α [4]; ER-α 8 μM, ligand 40 μM, no co-activator): 3.5 | Change in Tm stabilization from receptor-ligand ΔTm, SRC1 (ER-β [2]): 1.0 | Change in Tm stabilization from receptor-ligand ΔTm, SRC3 (ER-β [2]; SRC-3 20 μM): 2.5 | Change in Tm stabilization from receptor-ligand ΔTm, SRC2 (ER-β [2]; co-activator protein SRC-2): 2.4 | Observed ΔTm stabilization, Ligand (ER-β [2]): 2.9

Molecule: CC(C)(c1ccc(OCC2CO2)cc1)c1ccc(OCC2CO2)cc1 (stereo not drawn) [BADGE]
Observed stabilization of PPAR-γ, SRC1-NR2 (PPAR-γ [5]): 1.1 | Observed stabilization of PPAR-γ, NCoR-1 (PPAR-γ [5]): 5.5 | Observed stabilization of PPAR-γ, Ligand (PPAR-γ [5]): 1.1 | Thermofluor Prediction (PPAR-γ) (PPAR-γ [5]): Antagonist | Literature profile of ligand (PPAR-γ [6]): Antagonist γ

Molecule: C[C@]12CC[C@@H]3c4ccc(O)cc4CC[C@H]3[C@@H]1CC[C@@H]2O [Estradiol]
ΔTm at 20 µM (ER-β [7]; [9]): 0.5 °C

Molecule: C[C@]12CCC(=O)C=C1CC[C@@H]1[C@@H]2C(=O)C[C@@]2(C)[C@H]1CC[C@]2(O)C(=O)CO [cortisone]
ΔTm (ER-α [8]): 0.01 °C

Now from value to molecule, other results behind:

Observed stabilization of PPAR-γ, SRC1-NR2 (PPAR-γ [5]): 1.2 | Observed stabilization of PPAR-γ, NCoR-1 (PPAR-γ [5]): 3.5 | Observed stabilization of PPAR-γ, Ligand (PPAR-γ [5]): 5.9 | Thermofluor Prediction (PPAR-γ) (PPAR-γ [5]): Antagonist
Molecule: O=C(Nc1ccccc1)c1cc([N+](=O)[O-])ccc1Cl [GW9662]
Literature profile of ligand (PPAR-γ [6]): Antagonist γ

Co-activator recruitment / additional stabilization, conclusion in words (ER-α [1]; from Table 1, both receptors ER-α and ER-β): no ability to recruit co-activators | ΔTm at 11 µM (ER-α [1]; read-out: Change in Tm stabilization from receptor-ligand ΔTm, SRC-3): 0.5 °C | ΔTm at 11 µM (ER-β [3]; co-activator protein SRC-3 11 μM, read-out: Change in Tm stabilization from receptor-ligand ΔTm, SRC-3): 0.9 °C | ΔTm at 20 µM (ER-α [4]; [9]): 0.4 °C | ΔTm at 20 µM (ER-α [4]; [10]): 0.5 °C | Observed ΔTm stabilization, Ligand (ER-β [2]): 16.7 | ΔTm at 20 µM (ER-β [7]; [9]): 0.5 °C | ΔTm at 20 µM (ER-β [7]; [10]): 0.9 °C
Molecule: C[C@]12CC[C@@H]3c4ccc(O)cc4C[C@@H](CCCCCCCCC[S+]([O-])CCCC(F)(F)C(F)(F)F)[C@H]3[C@@H]1CC[C@@H]2O (stereo partly drawn) [ICI-182780]
Co-activator recruitment, conclusion in words (ER-α [4]; from Table 4 and FIGS. 3 and 4, SRC-1, SRC-2, SRC-3, ER-α (b172 also ER-β)): very little ability to recruit co-activator

Observed stabilization of PPAR-γ, SRC1-NR2 (PPAR-γ [5]): 1.5 | Observed stabilization of PPAR-γ, NCoR-1 (PPAR-γ [5]): 5.0 | Observed stabilization of PPAR-γ, Ligand (PPAR-γ [5]): 1.0 | Thermofluor Prediction (PPAR-γ) (PPAR-γ [5]): Antagonist
Molecule: Cc1cccc(Nc2cc(Cl)nc(SCC(=O)O)n2)c1C [WY14643]
Literature profile of ligand (PPAR-γ [6]): Partial α, antagonist γ
